Substitutions are numbered along the chain they refer to. Names may count otherwise. “Also recorded” adds a separate entry of the source.
T1: CRF1R L280A(5.47) (Homo sapiens, UniProt P34998, L280A)
T1 construct: expressed in transfected cells; host or cells: HEK293T, transient; whole cells solubilised in DDM
T1 sequence (P34998 with tags, fused parts or gaps L280A): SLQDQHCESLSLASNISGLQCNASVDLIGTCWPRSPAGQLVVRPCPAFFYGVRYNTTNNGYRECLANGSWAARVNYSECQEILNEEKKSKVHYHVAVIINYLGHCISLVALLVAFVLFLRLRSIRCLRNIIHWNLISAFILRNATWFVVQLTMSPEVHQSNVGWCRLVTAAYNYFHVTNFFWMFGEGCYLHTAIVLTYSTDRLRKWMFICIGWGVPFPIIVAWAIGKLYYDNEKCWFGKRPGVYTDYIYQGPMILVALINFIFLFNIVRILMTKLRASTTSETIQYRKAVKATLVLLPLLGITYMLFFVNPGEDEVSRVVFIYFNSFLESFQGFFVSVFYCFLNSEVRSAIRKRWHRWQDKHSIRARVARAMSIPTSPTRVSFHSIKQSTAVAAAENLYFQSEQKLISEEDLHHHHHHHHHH

T2: CRF1R N283A(5.50) (Homo sapiens, UniProt P34998, N283A)
T2 construct: expressed in transfected cells; host or cells: HEK293T, transient; whole cells solubilised in DDM
T2 sequence (P34998 with tags, fused parts or gaps N283A): T1 sequence (P34998 with tags, fused parts or gaps L280A) with A257L, N260A

T3: CRF1R Q355A(7.49) (Homo sapiens, UniProt P34998, Q355A)
T3 construct: expressed in transfected cells; host or cells: HEK293T, transient; whole cells solubilised in DDM
T3 sequence (P34998 with tags, fused parts or gaps Q355A): T1 sequence (P34998 with tags, fused parts or gaps L280A) with A257L, Q332A

T4: CRF1R F203A(3.44) (Homo sapiens, UniProt P34998, F203A)
T4 construct: expressed in transfected cells; host or cells: HEK293T, transient; whole cells solubilised in DDM
T4 sequence (P34998 with tags, fused parts or gaps F203A): T1 sequence (P34998 with tags, fused parts or gaps L280A) with F180A, A257L

B1: CRF1R wild type: wild-type human corticotropin-releasing factor receptor 1 (FIG. 12, SEQ ID NO:18) (protein)
chain: MGGHPQLRLVKALLLLGLNPVSASLQDQHCESLSLASNISGLQCNASVDLIGTCWPRSPAGQLVVRPCPAFFYGVRYNTTNNGYRECLANGSWAARVNYSECQEILNEEKKSKVHYHVAVIINYLGHCISLVALLVAFVLFLRLRSIRCLRNIIHWNLISAFILRNATWFVVQLTMSPEVHQSNVGWCRLVTAAYNYFHVTNFFWMFGEGCYLHTAIVLTYSTDRLRKWMFICIGWGVPFPIIVAWAIGKLYYDNEKCWFGKRPGVYTDYIYQGPMILVLLINFIFLFNIVRILMTKLRASTTSETIQYRKAVKATLVLLPLLGITYMLFFVNPGEDEVSRVVFIYFNSFLESFQGFFVSVFYCFLNSEVRSAIRKRWHRWQDKHSIRARVARAMSIPTSPTRVSFHSIKQSTAVAAAENLYFQSEQKLISEEDLHHHHHHHHHH
B2: CRF1R StaR: thermostabilized CRF1R with 12 mutations: V120A, L144A, W156A, S160A, S222A, K228A, F260A, I277A, Y309A, F330A, S349A, Y363A (protein)
chain: MGGHPQLRLVKALLLLGLNPVSASLQDQHCESLSLASNISGLQCNASVDLIGTCWPRSPAGQLVVRPCPAFFYGVRYNTTNNGYRECLANGSWAARVNYSECQEILNEEKKSKVHYHVAAIINYLGHCISLVALLVAFVLFLRARSIRCLRNIIHANLIAAFILRNATWFVVQLTMSPEVHQSNVGWCRLVTAAYNYFHVTNFFWMFGEGCYLHTAIVLTYATDRLRAWMFICIGWGVPFPIIVAWAIGKLYYDNEKCWAGKRPGVYTDYIYQGPMALVLLINFIFLFNIVRILMTKLRASTTSETIQARKAVKATLVLLPLLGITYMLAFVNPGEDEVSRVVFIYFNAFLESFQGFFVSVFACFLNSEVRSAIRKRWHRWQDKHSIRARVARAMSIPTSPTRVSFHSIKQSTAVAAAENLYFQSEQKLISEEDLHHHHHHHHHH
modifications: C-terminal tag

Columns and labels:
CRF1R L280A(5.47) = biological target: T1, CRF1R L280A(5.47); experiment: Solubilised whole cell ligand binding, alanine mutagenesis; conditions: Leu280^5.47Ala
Procedure: (§1) HEK293T cells transiently transfected with CRF1R constructs were incubated in buffer (50mMTris-HCl pH 7.5, 150mMNaCl, EDTA-free protease inhibitors) with 30 nM [^3H]CP-376395, and 120 nM cold CP-376395 (Tocris) for 18 hours at room temperature. Reactions were transferred to ice and all subsequent steps performed at 4° C. Cells were solubilized in 1% (w/v) n-dodecyl-β-D-maltopyranoside (DDM, Affymetrix) for 1 hour and crude lysates cleared by centrifugation at 16.000×g for 15 minutes. Thermostability of the receptor was measured by incubation at varying temperatures for 30 minutes followed by separation of excess and unbound radioligand by gel filtration. Levels of ligand-bound receptor were then determined using a liquid scintillation counter.
(§2) For saturation binding experiments, membranes isolated from HEK293T cells transiently expressing wild-type CRF1R (15 μg/well), CRF1R StaR (6 μg/well), CRF1R StaR with T4L fusion (20 μg/well), and CRF1R-#105 (20 μg/well) were incubated in buffer (50mMTris-HCl pH 7.5, 150 mM NaCl, 0.1% (w/v) PEI, EDTA-free protease inhibitors) with [^3H]CP-376395 (0-60 nM) in the presence or absence of 30 uM cold CP-376395 in a final volume of 500 μl. Final DMSO concentration in each reaction was 5% (v/v). Membranes were incubated for 18 hours at room temperature before being terminated by rapid filtration through 96-well GF/C UniFilter plates pre-soaked in 0.3% (w/v) PEI, followed by washing with PBS with 0.15% (w/v) CHAPS. Plates were dried, 50 μl Ultima Gold-F added per well and bound ligand measured using a Packard Microbeta counter. Data were analyzed using a global fitted one-site binding hyperbola in GraphPad Prism v5 to generate Kd. For solubilized whole cell ligand binding experiments, HEK293T cells transiently expressing eGFP-tagged wild-type CRF1R or single point mutants were treated as described above for thermostability experiments, without the 30 minute heating step. Specific binding was determined by subtracting untransfected controls. Expression of each construct was quantified by eGFP fluorescence of whole cells measured at Ex/Em of 488/520 nm.

CRF1R N283A(5.50) = biological target: T2, CRF1R N283A(5.50); experiment: as above; conditions: Asn283^5.50Ala
Procedure: as §1, §2

CRF1R Q355A(7.49) = biological target: T3, CRF1R Q355A(7.49); experiment: as above; conditions: Gln355^7.49 substituted with alanine
Procedure: as §1, §2

CRF1R F203A(3.44) = biological target: T4, CRF1R F203A(3.44); experiment: as above; conditions: Phe203^3.44Ala
Procedure: as §1, §2

[1] = Thermostability measurement of CRF1R constructs solubilised in DDM, read out by [3H]CP-376395 binding; format: physicochemical, human; conditions: measured using [3H]CP-376395 binding, mean of four independent experiments, standard deviation in parentheses
Procedure: as §1

| Molecule | antagonist binding after mutation to alanine (CRF1R L280A(5.47)) | ligand binding after mutation to alanine (CRF1R N283A(5.50)) | CP-376395 binding after substitution with alanine (CRF1R Q355A(7.49)) | antagonist binding after mutation to alanine (CRF1R F203A(3.44)) | Mean Tm [1] |
| --- | --- | --- | --- | --- | --- |
| CCC(CC)Nc1cc(C)nc(Oc2c(C)cc(C)cc2C)c1C [CP-376395] | negligible or no binding detected | complete loss of ligand binding; also recorded: negligible or no binding detected | did not affect | negligible or no binding detected | – |
| B1 | – | – | – | – | 18.4 (2.0) ° C. |
| B2 | – | – | – | – | 44.7 (2.2) ° C. |

From patent publication US20150261911A1, “CRYSTAL STRUCTURE” (Heptares Therapeutics Limited, priority 2014, published 2015)
